# Laboratory results taken from PubChem BioAssay AID2305 (GlaxoSmithKline (GSK), 2010).
# pIC50: −log10 of the molar value.
# System: P. falciparum 3D7 growth, pLDH absorbance
# Assay: P. falciparum 3D7 growth inhibition, dose response, strain 3D7 (AID 2305)
row,Structure (SMILES),pIC50
1,CCC(Cc1ccccc1)c1cc(O)c(Cc2ccc(-c3ccccc3)cc2)c(=O)o1 (stereo not drawn),6.01
2,Cc1cccc(CNc2nccc3[nH]c4ccccc4c23)c1,5.72
3,CC(C)COc1ccc(Cl)cc1Cc1nc(-c2nc3nc(N4CCN(C)CC4)ccc3[nH]2)cs1,6.12
4,CCOC(=O)C(C#N)NC(=O)C=Cc1ccccc1 (stereo not drawn),6.10
5,O=C(/C=C/c1ccc(Cl)c(Cl)c1)N1CCC(CN2CCC(c3c[nH]c4ccc(O)cc34)CC2)CC1,6.11
6,Fc1ccc2nc(-c3cccc(-c4ccc(CNCC5CCCO5)cc4)c3)[nH]c2c1 (stereo not drawn),6.27
7,O=C(NCCCCN1CCC[C@@H]2c3cccc(O)c3CC[C@@H]21)c1ccc(-c2ccccc2)cc1,5.93
8,Cc1ccc(NC(=O)Nc2ccc(I)c(OCCN(C)C)c2)cc1Cl,6.25
9,CN1CCc2ccc(NC(=O)Nc3ccc(Cl)c(Cl)c3)cc2C1,6.14
10,O=C(Cn1c(SCc2cccc(F)c2F)cc(=O)c2ccccc21)N(CCc1cnc[nH]1)Cc1ccc(-c2ccc(C(F)(F)F)cc2)cc1,6.10
11,Oc1ccc(CCNc2nc(NCc3cccc(OCc4cccc(F)c4)c3)nc(N3CCNCC3)n2)cc1,5.87
12,Cc1cc(NN=Cc2ccccc2F)c2cc(F)ccc2n1,6.52
13,COc1ccccc1C1CCN(C2CCC(NC(=O)/C=C/c3ccc4c(c3)OC(F)(F)O4)CC2)CC1 (stereo not drawn),6.08
14,CN1CCC(Oc2cc(NC(=O)Nc3ccc(-c4ccncc4)c(C(F)(F)F)c3)ccc2Cl)CC1,6.11
15,CC[C@H]1CN2CC[C@H]1C[C@H]2[C@H](O)c1cc(-c2ccccc2C(F)(F)F)nc2ccc(OC)cc12,6.64
16,N/C(=N/C(=NCCCCCCN=C(/N=C(/N)Nc1ccc(Cl)cc1)N1CCCCC1)N1CCCCC1)Nc1ccc(Cl)cc1,6.59
17,O=C(NC1CC1)c1cnc(N2CCN(Cc3c(F)cccc3Cl)CC2)c(Cl)c1,6.04
18,COC(=O)Cn1c2ccccc2c2c(N)c(C(=O)OC)c(C)nc21,6.03
19,O=C(NC1CCN(CC2(c3ccc(Cl)cc3)CCC2)CC1)c1cscn1,6.28
20,O=C(NCCN1CCCCC1)c1cccc(Nc2nccc(Nc3ccc(Oc4ccccc4)cc3)n2)c1,6.57
21,N[C@@H](Cc1cc(I)c(Oc2ccc(O)c(C(=O)O)c2)c(I)c1)C(=O)O,6.00
22,CCCN(c1ccc(C(F)(F)F)cc1[N+](=O)[O-])S(=O)(=O)C(c1ccccc1)c1ccc(C(F)(F)F)cc1[N+](=O)[O-] (stereo not drawn),5.91
23,C[C@@H]1CN(c2cnn(C/C=C/c3ccc(NC(=O)c4ccc([N+](=O)[O-])cc4)cc3)c(=O)c2Cl)C[C@H](C)N1,6.15
24,COc1cncc(/C=C/c2cncc(C(=O)NCCc3ccc(Cl)cc3Cl)c2)c1,6.06
25,N#Cc1ccc2c(c1)CN(CCC1CCC(NC(=O)c3cc4cc(OC(F)(F)F)ccc4[nH]3)CC1)CC2 (stereo not drawn),6.11

row,Structure (SMILES),pIC50
1,Nc1nccc2ccc(Oc3ccncc3)cc12,6.32
2,Cc1cccc2[nH]c(-c3ccc(-c4cccc(CN5CCC(C(N)=O)CC5)c4)s3)nc12,5.90
3,CCCCCc1ccc(NC(=O)Nc2ccc(Cn3ncc(N4CCCNCC4)c(Cl)c3=O)cc2)cc1,5.94
4,COc1cccc(CC(=O)N2CCC(n3c(C)nc4ccc(F)cc43)CC2)c1,6.04
5,CC[C@H]1CN(Cc2ccco2)CC[C@H]1CCCc1ccnc2ccc(O)cc12,5.90
6,Cc1noc(C)c1-c1ccc2c(Nc3ccc([N+](=O)[O-])cc3)c(C(N)=O)cnc2c1,6.16
7,Cc1cc(F)ccc1-c1nc(NCCCNCCc2ccccc2)nc2c1ccc(=O)n2-c1c(F)cccc1F,6.72
8,CS(=O)(=O)Cc1ccc(Nc2nccc(NC3CCN(c4nccc(C(F)(F)F)n4)CC3)n2)cc1,6.05
9,O=S(=O)(Nc1cc2c(cc1O)CCN(C1CCC1)CC2)c1ccc(Oc2ccc(F)cc2)cc1,6.11
10,O=C(CCNc1ccnc(NCCc2ccc(F)cc2)n1)Nc1ccccc1,6.08
11,O=C(Nc1ccc(-c2nc3ccccc3[nH]2)cc1)c1cccc([N+](=O)[O-])c1,6.66
12,CN1CCN(Cc2cccc(-c3cc4nccc(Nc5ccc(Oc6ccccc6)cc5)c4cc3Cl)c2)CC1,6.14
13,Nc1nc(N)c2cc(C(F)(F)F)ccc2n1,5.95
14,CCN(CC)CCCC(C)Nc1c(-c2ccc(C)cc2)cnc2ccccc12 (stereo not drawn),6.70
15,O=C(/C=C/C=C/c1ccc(Cl)c(Cl)c1)NCCCCCN1CCCC2CCCCC21 (stereo not drawn),6.02
16,CCOC(C(=O)OCC1CCCN1C(C)C)(c1ccccc1)c1ccccc1 (stereo not drawn),6.12
17,Cc1[nH]c(-c2ccc(F)cc2)cc1C(=O)NC1CCN(Cc2ccccc2)CC1,5.95
18,CC(=O)Nc1ncc(C(=O)Nc2cccc(-c3cccc(-c4nc5ccccc5[nH]4)c3)c2)s1,6.09
19,Cc1noc(C)c1-c1ccc2c(Nc3ccccc3C(C)(C)C)c(C(=O)NCc3ccccc3)cnc2c1,6.12
20,CNC(=O)C1Cc2c([nH]c3c(C)cccc23)C2(N1)C(=O)Nc1ccc(OC(F)(F)F)cc12 (stereo not drawn),6.34
21,N#Cc1ccc(-c2ccc(C(=O)NCCCCN3CCC(c4cn(CCCO)c5ccccc45)CC3)cc2)cc1,6.12
22,COc1cccc(-c2c(C#N)c(N)nc3c2c(C)nn3-c2ccccc2)c1O,6.55
23,CCc1c(C)nc2nc(Cc3cccc(F)c3)nn2c1N1CCN(c2ccccn2)CC1,6.12
24,CNC(=O)CSc1nnc(-c2ccc(C)cc2)c(-c2ccc(C)cc2)n1,6.22
25,Cn1cncc1C(=O)Nc1ccc(-c2ccc(-c3nc4ccc(C(F)(F)F)cc4[nH]3)cc2)cc1,6.25

row,Structure (SMILES),pIC50
1,Oc1ccccc1CN1CCC2(CCCN(Cc3ccccc3F)C2)C1 (stereo not drawn),6.17
2,Oc1ccc2[nH]c(-c3cccc(F)c3)nc2c1CN1CCCC1,6.10
3,c1cncc(CCNCc2cccc(-c3ccc(-c4nc5ccccc5[nH]4)s3)c2)c1,6.70
4,CO/C(=C\C=C\c1cc2cc(Cl)c(Cl)cc2[nH]1)C(=O)NC1C[C@@H](C)N(C)[C@@H](C)C1 (stereo partly drawn),6.05
5,Cc1[nH]c(C)c(-c2ccc(OCCOc3ccc(C(F)(F)F)cn3)cc2)c(=O)c1Br,6.85
6,OCCCCCCN=Cc1[nH]c(=S)sc1O,6.07
7,COc1ccc(-c2c3c(=O)n(C)c(=O)n(C)c3c3nnc4ccccc4n23)cc1,6.00
8,COc1ccc(-c2csc3nc(C)nc(Cl)c23)cc1OC,6.44
9,COC(=O)[C@@H](NC(=O)[C@@H](Nc1ccc(C#N)c2ccccc12)C(C)(C)C)c1ccc(O)cc1,6.11
10,COc1ccc(NC(=O)Nc2cc(C)nc3cccnc23)cc1Cn1ccnc1,6.13
11,O=C(Nc1ccc2ccccc2n1)c1ccccc1-c1ccccc1,6.36
12,CCN(CC)CCn1c(=N)n(CC(=O)c2ccc(-c3ccccc3)cc2)c2ccccc21,5.94
13,CCn1cc(CN2CCCC(C(=O)Nc3ccc(-c4nc5ccccc5[nH]4)cc3)C2)c(C)n1 (stereo not drawn),6.10
14,CC(C)(CC1CCCCC1)NC(=O)[C@H](CC1CCCCC1)Nc1ccc(C#N)c2ccccc12,6.23
15,Cc1cccc2[nH]c(-c3ccc(-c4ccc(CN5CCCCC5)cc4)cc3)nc12,6.23
16,CC1(C)N=C(N)N=C(N)N1OCc1ccc2ccccc2c1CON1C(N)=NC(N)=NC1(C)C,6.18
17,COc1ccc(Br)cc1/C=C/C(=O)Nc1cccc(C2CCCN(C)C2)c1 (stereo not drawn),6.05
18,Cc1noc(C)c1-c1ccc2c(Nc3ccccc3C(C)(C)C)c(C(=O)NC3CCCC3)cnc2c1,5.98
19,CCOc1cc2ncnc(Nc3cc(Cl)c(Cl)c(Cl)c3)c2cc1OCC,6.70
20,COc1ccc2nc(C)cc(NN=Cc3ccccc3)c2c1,5.99
21,Cc1cccc(CN2CCC(C(=O)Nc3ccc(-c4nc5ccccc5[nH]4)cc3)CC2)n1,6.04
22,Cc1cc2[nH]c(-c3ccc(C(=O)NCCCN4CCN(c5cccc(Cl)c5)CC4)cc3F)nc2cc1Cl,6.32
23,CCc1ccc(OCc2ccccc2C(=O)Nc2ccc3nc(C)cc(N)c3c2)cc1,6.70
24,CCc1cn2c3c(cc(C(=O)N[C@@H](Cc4cc(F)cc(F)c4)[C@H](O)CNC4CCOCC4)cc13)N(C)S(=O)(=O)CC2,7.52
25,CNCc1ccc2nc(-c3coc(Cc4cc(Cl)ccc4OCC(C)C)n3)[nH]c2c1,6.08

row,Structure (SMILES),pIC50
1,Cc1[nH]c(C)c(-c2ccc(OCCCCSc3ccncc3)cc2)c(=O)c1Br,6.60
2,COc1cc(Nc2ccnc3cc(-c4nccs4)ccc23)ccc1OCCCc1nc2ccccc2[nH]1,6.62
3,CCOc1ccc2nc(C)cc(NN=Cc3ccccc3)c2c1,6.11
4,CCN(CCO)CCc1cccc(Nc2nccc(-c3c(-c4ccc(NC(=O)N(CC)CC)cc4)nn4ccccc34)n2)c1,5.95
5,Oc1ccc(Cl)cc1-c1cc(C(F)(F)F)nc(-c2ccccc2)n1,6.12
6,COc1ccccc1-n1ccnc1SCC(=O)Nc1cccc(C(F)(F)F)c1,6.80
7,Cc1ccc2nc(Cl)c3cc(C(=O)NCCCN4CCCC4)sc3c2c1,5.94
8,O=C1COC2(CN1C1CCN(Cc3ccc(O)c(Cl)c3)C1)c1ccccc1-c1ccccc12 (stereo not drawn),6.02
9,COc1ccc2ncc(Cl)c(CCN3C[C@H](CNCc4ccc5c(n4)NC(=O)CS5)[C@H](O)C3)c2n1,6.00
10,CC(C)Cn1cc(C2CCN(CCN3CCC(CNC(=O)c4ccc(NC(=O)c5ccc(Cl)cc5)cc4)CC3)CC2)c2ccccc21,6.60
11,O=C(Nc1ccc(-c2nc3ccccc3[nH]2)cc1)c1ccc(S(=O)(=O)N2CCCCCC2)cc1,6.39
12,Cc1cnc(C(=O)Nc2cccc(-c3cccc(-c4nc5ccc(F)cc5[nH]4)c3)c2)cn1,6.11
13,COc1cc2ncnc(Nc3ccc(OCc4ccccc4)c(OCc4ccccc4)c3)c2cc1OC,6.13
14,Cc1cc(N2CCN(C)CC2)nc2ccc(NC(=O)Cc3cccc(C(F)(F)F)c3)cc12,6.13
15,CN(C)CCCOc1ccc(CN2CC[C@H](NC(=O)c3ccc(Cl)c(Cl)c3)C2)c2ccccc12,6.06
16,CCCCCCCCCCN1C(=O)C2C(CCCCNC(C)=O)NC3(C(=O)N(Cc4ccc(C(C)(C)C)cc4)c4ccccc43)C2C1=O (stereo not drawn),6.00
17,COc1cc2c(=O)c(Cc3ccc(Cl)cc3)c(C)[nH]c2cc1F,5.94
18,Cc1cccn2c(=O)c3cc(C(=O)NCCc4ccccc4)c(=N)n(CCCOC(C)C)c3nc12,6.32
19,O=C(Nc1ccc(C(=O)Nc2cccc(C3=NCCN3)c2)cc1)Nc1ccc(C2=NCCN2)cc1,7.00
20,CN1CCN(CC(=O)Nc2cccc(-c3ccc(-c4nc5ccc(C(F)(F)F)cc5[nH]4)s3)c2)CC1,6.51
21,CCCOc1cc(OCCC)cc(-c2cc(=O)c3ccccc3[nH]2)c1,7.22
22,Cn1nccc1C(=O)NCCNCc1cccc(-c2ccc(-c3nc4ccccc4[nH]3)s2)c1,6.52
23,COC(=O)c1ccc(CC(C)NCC(O)c2cccc(Oc3cccc(C(F)(F)F)c3)c2)cc1 (stereo not drawn),5.93
